Source: patent publication US8663711B2, “Use of armillaridin for treating cancer” (Mackay Memorial Hospital, priority 2012, dated 2014)
Read-outs that look alike come from different tables or passages of the source.

Key:
CE81T/VGH cells [1] = assay: Cell cycle analysis by flow cytometry (propidium iodine); format: cell-based, human
Method: FIG. 1 illustrates the effects of CH-205-O (i.e., armillaridin) on cell cycle distribution in CE81T/VGH cells in accordance with one embodiment of this invention, in which upper panels represented results obtained from CE81T/VGH cells treated with 0 (panel A), 10 μM (panel B) or 20 μM (panel C) of CH-205-O for 48 hours, and lower panels represented results obtained from CE81T/VGH cells treated with 0 (panel D), 10 μM (panel E) or 20 μM (panel F) of CH-205-O for 72 hours;
Cultured cells with or without pre-treatment of the compound of this invention (i.e., armillaridin at 10 or 20 μM for 48 or 72 hours) were harvested from the cultured media and fixed by incubating with 75% iced cold ethanol at 4° C. for at least over night. The fixed cells were then warmed up to room temperature and treated with RNAase A for about 30 min. Precipitated cells were collected by centrifugation and re-suspended in a buffer solution containing propidium iodine (20 μg/ml) before being subject to flow cytometry analysis, where cell numbers at respective cell cycles were determined.

CE81T/VGH cells [2] = assay: Radiation treatment and clonogenic assay; format: cell-based, human; conditions: pre-treatment 2.5 or 5 μM for 24 hours, then 0-4 Gy radiation, colonies counted after 14 days
Method: Approximately 100 variable tumor cells were respectively plated onto 35-mm six-well culture dishes and were allowed to grow in DMEM medium contained 10% FCS mixed with 0, 1.25, 2.5 or 5 μM of the test compound of this disclosure (i.e., CH-205-O), and the test compound-treated cells were continued culture for 24 hours. The test compound was then washed out, and cells were subject to radiation treatment. Specifically, 6 MeV electron beam energy was delivered by a linear accelerator (Clinac 1800, Varian Associates, Inc., Palo Alto, Calif., USA) with a rate of 2.4 Gy/min at various dose including 0, 0.5, 1, 2, 3 and 4 Gy in a single fraction. Full electron equilibrium was ensured for each fraction by a parallel plate PR-60C ionization chamber (CAPINTEL, Inc., Ramsey, N.Y., USA).
After radiation treatment, cells were returned to the culture for another 14 days; then were stained with 3% crystal violet and the numbers of colony (≧50 cells) were counted.
To this purpose, cancerous cells were pre-treated with 1.25, 2.5 or 5 μM CH-205-O, before being treated with various doses of radiation in accordance with procedures described in “Materials and Methods” section. […]

[3] = test system: TE-2 human esophageal squamous carcinoma cell line; assay: Trypan blue exclusion test, cell viability; format: cell-based; conditions: TE-2, 72 hours, read-out: IC50 (concentration required to reduce viability by 50%)
Method: (§1) Cell lines used in the present disclosure include human esophageal squamous carcinoma cell lines CE81T/VGH and TE-2, and human esophageal adenocarcinoma cell lines BE-3 and SKGT-4. Each cell lines were cultured and maintained in Dulbecco's modified Eagle media (DMEM) supplemented with 10% fetal calf serum, 100 IU/ml penicillin, 100 μg/ml streptomycin, and 2 mM glutamine in 5% CO2 at 37° C.
(§2) The dye exclusion test is used to determine the number of viable cells present in a cell suspension. […] In this test, the cells were first treated with a test compound (i.e., CH-205-O) for a certain period of time (e.g., 72 hours), then the cells were harvested and re-suspended in suitable buffer solution. The cell suspension was then mixed with trypan blue dye and then visually examined to determine whether cells had taken up or excluded the dye. A viable cell will have a clear cytoplasm, whereas a nonviable cell will have a blue cytoplasm. The concentration required to reduce viability by 50% (IC50) after 72 hours was extrapolated from the dose-response curves by different concentrations of the test compound using a second-order polynomial regression model and analyzing with SigmaPlot Software (Systat Software Inc., San Jose, Calif.).
(§3) The human esophageal cancer cell lines including squamous cell carcinoma cell lines CE81T/VGH and TE-2, and adenocarcinoma cell lines BE-3 and SKGT-4 were cultured and maintained by procedures described above in the “Materials and Methods” Section. Anti-proliferative activity of armillaridin (hereafter “CH-205-O”) on each cell lines was assessed by cell viability and cell cycle analysis.

[4] = test system: BE-3 human esophageal adenocarcinoma cell line; assay: Trypan blue exclusion test, cell viability; format: cell-based; conditions: BE-3, 72 hours, read-out: IC50 (concentration required to reduce viability by 50%)
Method: as §1, §2, §3

[5] = test system: CE81T/VGH human esophageal squamous carcinoma cell line; assay: Trypan blue exclusion test, cell viability; format: cell-based; conditions: read-out: IC50 (concentration required to reduce viability by 50%)
Method: as §1, §2, §3

[6] = test system: SKGT-4 human esophageal adenocarcinoma cell line; assay: Trypan blue exclusion test, cell viability; format: cell-based; conditions: SKGT-4, 72 hours, read-out: IC50 (concentration required to reduce viability by 50%)
Method: as §1, §2, §3

[7] = test system: CE81T/VGH cells xenografted esophageal tumor; assay: Xenograft esophageal cancer mice model; format: in vivo, Balb/c nude mice
Method: For primary esophageal cancer model, total of 9 Balb/c nude mice at the age of 6 weeks were randomly divided into 3 groups, with 3 mice in each group. To start the experiment, each mice were injected with 5×10^5 CE81T/VGH cells subcutaneously to generate esophageal cancer on day 0, and then returned to culture for another 21 days to allow tumor progression. To evaluate the efficacy of the test compound, mice in the test group were given 3 doses of the test compound (CH-205-O at 80 mg/Kg/dose; or cisplatin at 2.5 mg/Kg/dose) every week, and total of […] were given during a period of 20 days after treatment started on day 22. Tumor sizes were measured using calipers. The body weight and the white blood cell counts of each mice were respectively recorded every day throughout the experiment. Tumor volume was calculated using the formula: volume=width^2×length×0.52.
Effects of CH-205-O of this disclosure on mice grafted with CE81T/VGH cells were investigated by measuring the grafted tumor volume; body weight and the number of white blood cells of the mice in accordance with steps described in “Materials and Methods” section. Results are illustrated in FIG. 3.

[8] = long-term exposure, 80 mg/Kg/dose, 12 doses

IC50 ([3]; Homo sapiens, 72 h): ~3 µM
IC50 [3]: 3.4 µM
IC50 [4]: 5.4 µM
IC50 ([4]; Homo sapiens, 72 h): ~5 µM
IC50 ([5]; 72 hours): 6.9 µM
IC50 ([5]; Homo sapiens, CE81T, 72 h): ~7 µM
IC50 ([6]; Homo sapiens, SKGT4, 72 h): ~5 µM
IC50 [6]: 5.5 µM
Number of white blood cells of the mice [7, 8]: does not affect
SMILES: COc1cc(O)c(C(=O)O[C@@H]2C[C@]3(C)C4CC(C)(C)CC4C=C(C=O)[C@]23O)c(C)c1Cl (stereo partly drawn) [CH-205-O, (2R,2aS,7bR)-3-formyl-2,2a,4a,5,6,7,7a,7b-octahydro-2a-hydroxy-6,6,7b-trimethyl-1H-cyclobuta[e]inden-2-yl 3-chloro-6-hydroxy-4-methoxy-2-methylbenzoate]
Cell cycle arrest at G2/M phase (CE81T/VGH cells [1]; 10 or 20 μM for 48 hours, CE81T/VGH cells): capable of arresting the CE81T/VGH cells at G2/M phase in a dose-dependent manner
sub-G1 population of cells (CE81T/VGH cells [1]; 10 or 20 μM, treatment for 72 hours, CE81T/VGH cells): induce an increase in the sub-G1 population of cells
Esophageal cancerous cells arrested at G2/M cycle (CE81T/VGH cells [1]; one specific example): at least 50%
Susceptibility of CE81T/VGH cells to radiation treatment (colony formation) (CE81T/VGH cells [2]): capable of enhancing the susceptibility of CE81T/VGH cells to radiation treatment
Volume of the xenografted esophageal tumor ([7]; 80 mg/Kg/dose, at least 12 doses, compared with control mice (vehicle only)): effective in reducing the volume of the xenografted esophageal tumor significantly
Body weight of the mice [7, 8]: does not affect
Reduction of the size of the cancer as compared with control ([7]; long-term exposure, at least 12 doses within 20 days, 3 doses per week): at least 50%
